Test results taken from US7858635B2 (priority 2005, dated 2010).
Like-named read-outs stand apart in the source and are kept apart here.

How the values were obtained:
M4 muscarinic receptor = target: T1, M4 muscarinic receptor (Homo sapiens, UniProt P08173); experiment: Functional mobilization of intracellular calcium (FLIPR, Fluo-3), M4-CHO cells; type: cell-based; conditions: for Emax: read-out: M4 Efficacy
T1 construct: expressed in transfected cells; host or cells: CHO cells (M4-CHO, under puromycin, zeocin and blasticidin selection)
T1 sequence (P08173 1-479): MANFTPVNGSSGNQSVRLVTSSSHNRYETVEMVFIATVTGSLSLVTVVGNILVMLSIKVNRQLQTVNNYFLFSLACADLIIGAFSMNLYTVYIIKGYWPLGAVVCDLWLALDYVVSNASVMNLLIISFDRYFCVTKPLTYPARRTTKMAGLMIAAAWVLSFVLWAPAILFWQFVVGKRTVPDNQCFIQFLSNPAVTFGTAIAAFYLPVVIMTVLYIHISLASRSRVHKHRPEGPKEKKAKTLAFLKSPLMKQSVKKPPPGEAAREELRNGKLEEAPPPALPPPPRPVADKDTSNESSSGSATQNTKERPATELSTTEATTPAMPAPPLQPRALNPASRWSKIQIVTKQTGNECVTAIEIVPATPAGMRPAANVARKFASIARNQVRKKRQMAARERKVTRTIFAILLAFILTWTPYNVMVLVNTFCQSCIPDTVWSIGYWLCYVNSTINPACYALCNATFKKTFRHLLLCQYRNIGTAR
Procedure, shortened: (§1)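 CHO lines stably carrying the muscarinic subtype, dye-loaded with Fluo-3 at 37° C for 60-90 min, receive test compound in 0.5% DMSO. Agonist effects are read directly; antagonist effects against carbachol at EC80 after 15 min pre-incubation.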

M1 muscarinic receptor = target: T2, M1 muscarinic receptor (Homo sapiens, UniProt P11229); experiment: Functional mobilization of intracellular calcium (FLIPR, Fluo-3), M1-CHO cells; type: cell-based; conditions: for Emax: read-out: M1 Efficacy
T2 construct: expressed in transfected cells; host or cells: CHO cells (M1-CHO, under zeocin and G418 selection)
T2 sequence (P11229 1-460): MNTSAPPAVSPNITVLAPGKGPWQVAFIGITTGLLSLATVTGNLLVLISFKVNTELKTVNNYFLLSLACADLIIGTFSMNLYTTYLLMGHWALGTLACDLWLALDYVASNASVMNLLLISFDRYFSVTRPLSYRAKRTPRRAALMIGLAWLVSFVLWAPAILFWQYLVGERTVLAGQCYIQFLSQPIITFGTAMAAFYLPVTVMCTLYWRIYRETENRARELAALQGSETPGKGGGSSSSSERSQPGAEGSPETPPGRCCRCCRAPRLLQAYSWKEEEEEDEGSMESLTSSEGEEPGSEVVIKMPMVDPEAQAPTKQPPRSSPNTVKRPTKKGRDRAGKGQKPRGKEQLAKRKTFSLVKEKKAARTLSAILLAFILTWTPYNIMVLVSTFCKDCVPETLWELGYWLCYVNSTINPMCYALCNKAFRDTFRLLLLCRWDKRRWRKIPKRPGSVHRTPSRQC
Procedure, shortened: as §1

[1] = compound nos. 1-454, 100% efficacy is the maximum response obtained with the Carbachol control
[2] = compound nos. 1-454, M4-CHO cells, calcium mobilization
[3] = compound nos. 1-454, M1-CHO cells, calcium mobilization
[4] = compound nos. 455-509, 100% efficacy is the maximum response obtained with the Carbachol control

In the case of `CC(C)OC(=O)N1CCC(N2CCC3(CC2)CN(C(=O)N(C)C)c2ccc(F)cc23)CC1` [compound 54], the Emax (M4 muscarinic receptor; [1]) was 55 to 70%, the “M4 Activity” value (M4 muscarinic receptor; [2]) was “++ (activity was measured to be between 0.1 μM and 4.0 μM)” and the Emax (M1 muscarinic receptor; [1]) was over 85%. For the same molecule, the “M1 Activity” value (M1 muscarinic receptor; [3]) was “+++ (activity was measured to be less than or equal to 0.7 μM)”.

For `COC(=O)N1CCC(CN2CCC3(CC2)CN(C(C)=O)c2ccc(C)cc23)CC1` [compound 423], the “M4 Activity” value (M4 muscarinic receptor; compound nos. 1-454) was “+ (activity was measured to be greater than or equal to 4.0 μM)”, the Emax (M4 muscarinic receptor; [1]) was under 55% and the “M1 Activity” value (M1 muscarinic receptor; compound nos. 1-454) was “++ (activity was measured to be between 0.7 μM and 3.0 μM)”. The Emax (M1 muscarinic receptor; [1]) was under 65%.

`CCOC(=O)N1CCC(N2CCC3(CC2)CN(C(=O)C2CCCCC2)c2ccc(F)cc23)CC1` [compound 281] was tested, and the Emax (M4 muscarinic receptor; [1]) was 55 to 70%, the “M4 Activity” value (M4 muscarinic receptor; [2]) was “++ (activity was measured to be between 0.1 μM and 4.0 μM)” and the Emax (M1 muscarinic receptor; [1]) was under 65%. The “M1 Activity” value (M1 muscarinic receptor; [3]) was “++ (activity was measured to be between 0.7 μM and 3.0 μM)”.

For `COC(=O)N1CCC(CN2CCC3(CC2)CN(C(C)=O)c2ccc(F)cc23)CC1` [compound 129], the Emax (M4 muscarinic receptor; [1]) was under 55%, the “M4 Activity” value (M4 muscarinic receptor; [2]) was “+ (activity was measured to be greater than or equal to 4.0 μM)” and the Emax (M1 muscarinic receptor; [1]) was 65 to 85%. The “M1 Activity” value (M1 muscarinic receptor; [3]) was “+++ (activity was measured to be less than or equal to 0.7 μM)”.

For `CC(=O)N1CC2(CCN(CC3CCN(C(=O)OC(C)C)CC3)CC2)c2cc(F)ccc21` [compound 202], the Emax (M4 muscarinic receptor; [1]) was under 55%, the “M4 Activity” value (M4 muscarinic receptor; [2]) was “+ (activity was measured to be greater than or equal to 4.0 μM)” and the Emax (M1 muscarinic receptor; [1]) was 65 to 85%. The “M1 Activity” value (M1 muscarinic receptor; [3]) was “++ (activity was measured to be between 0.7 μM and 3.0 μM)”.

`CC(=O)N[C@H]1CC2(CCN(C3CC4CCC(C4)C3)CC2)c2ccccc21` (stereo partly shown) [compound 337] was tested, and the Emax (M4 muscarinic receptor; [1]) was under 55%, the “M4 Activity” value (M4 muscarinic receptor; [2]) was “+ (activity was measured to be greater than or equal to 4.0 μM)” and the Emax (M1 muscarinic receptor; [1]) was under 65%. For the same molecule, the “M1 Activity” value (M1 muscarinic receptor; [3]) was “+ (activity was measured to be greater than or equal to 3.0 μM)”.

In the case of `Cc1cnc(N2CCC(N3CCC4(CC3)CN(C(=O)N(C)C)c3ccccc34)CC2)cn1` [compound 468], the Emax (M4 muscarinic receptor; [4]) was 25 to 100%, the “M4 Activity” value (M4 muscarinic receptor; compounds 455-509) was “++ (activity was measured to be between 2.0 μM and 5.0 μM)” and the Emax (M1 muscarinic receptor; [4]) was over 100%. The “M1 Activity” value (M1 muscarinic receptor; compounds 455-509) was “+ (activity was measured to be greater than or equal to 5.0 μM)”.

For `CCOC(=O)N1CCC(N2CCC3(CC2)CN(C(C)=O)c2ccc(-c4ccc(C#N)cc4)cc23)CC1` [compound 253], the Emax (M4 muscarinic receptor; [1]) was 55 to 70%, the “M4 Activity” value (M4 muscarinic receptor; [2]) was “+ (activity was measured to be greater than or equal to 4.0 μM)” and the Emax (M1 muscarinic receptor; [1]) was 65 to 85%. For the same molecule, the “M1 Activity” value (M1 muscarinic receptor; [3]) was “++ (activity was measured to be between 0.7 μM and 3.0 μM)”.

For `CCc1nsc(N2C3CCC2CC(N2CCC4(CCN(C(=O)N(C)C)c5ccccc54)CC2)C3)n1` (stereo not shown) [compound 473], the Emax (M4 muscarinic receptor; [4]) was 25 to 100%, the “M4 Activity” value (M4 muscarinic receptor; compounds 455-509) was “++ (activity was measured to be between 2.0 μM and 5.0 μM)” and the Emax (M1 muscarinic receptor; [4]) was over 100%. The “M1 Activity” value (M1 muscarinic receptor; compounds 455-509) was “+++ (activity was measured to be less than or equal to 2.0 μM)”.

In the case of `CCOC(=O)N1C2CCC1CC(N1CCC3(CC1)CN(C(=O)OCCOC)c1ccc(F)cc13)C2` (stereo not shown) [compound 90], the Emax (M4 muscarinic receptor; [1]) was under 55%, the “M4 Activity” value (M4 muscarinic receptor; [2]) was “+ (activity was measured to be greater than or equal to 4.0 μM)” and the Emax (M1 muscarinic receptor; [1]) was 65 to 85%. The “M1 Activity” value (M1 muscarinic receptor; [3]) was “++ (activity was measured to be between 0.7 μM and 3.0 μM)”.

`CC(=O)NC1CC2(CCN(C[C@@H]3C[C@H]4C=C[C@H]3C4)CC2)c2ccccc21` (stereo partly shown) [compound 421] was tested, and the “M4 Activity” value (M4 muscarinic receptor; compound nos. 1-454) was “+ (activity was measured to be greater than or equal to 4.0 μM)”, the “M4 Efficacy” value (M4 muscarinic receptor; [1]) was “+ (efficacy was calculated to be 55% or less)” and the “M1 Activity” value (M1 muscarinic receptor; compound nos. 1-454) was “+ (activity was measured to be greater than or equal to 3.0 μM)”. For the same molecule, the “M1 Efficacy” value (M1 muscarinic receptor; [1]) was “+ (efficacy was calculated to be 65% or less)”.

In the case of `CC(=O)N1CC2(CCN(CC3CCN(C(=O)O[C@@H]4CCOC4)CC3)CC2)c2cc(C)ccc21` [compound 403], the “M4 Activity” value (M4 muscarinic receptor; compound nos. 1-454) was “+ (activity was measured to be greater than or equal to 4.0 μM)”, the Emax (M4 muscarinic receptor; [1]) was under 55% and the “M1 Activity” value (M1 muscarinic receptor; compound nos. 1-454) was “+++ (activity was measured to be less than or equal to 0.7 μM)”. It also gave an Emax (M1 muscarinic receptor; [1]) of 65 to 85%.

In the case of `CCOC(=O)N1CCC(N2CCC3(CC2)CN(C(=O)c2ccncc2)c2ccc(F)cc23)CC1` [compound 260], the Emax (M4 muscarinic receptor; [1]) was under 55%, the “M4 Activity” value (M4 muscarinic receptor; [2]) was “+ (activity was measured to be greater than or equal to 4.0 μM)” and the Emax (M1 muscarinic receptor; [1]) was 65 to 85%. For the same molecule, the “M1 Activity” value (M1 muscarinic receptor; [3]) was “+++ (activity was measured to be less than or equal to 0.7 μM)”.

For `O=C(OCC(F)(F)F)N1C2CCC1CC(N1CCC3(CC1)COc1ccc(F)cc13)C2` (stereo not shown) [compound 124], the Emax (M4 muscarinic receptor; [1]) was under 55%, the “M4 Activity” value (M4 muscarinic receptor; [2]) was “++ (activity was measured to be between 0.1 μM and 4.0 μM)” and the Emax (M1 muscarinic receptor; [1]) was under 65%. For the same molecule, the “M1 Activity” value (M1 muscarinic receptor; [3]) was “+++ (activity was measured to be less than or equal to 0.7 μM)”.

`COCCOC(=O)N1CCC(CN2CCC3(CC2)CN(C(C)=O)c2ccc(F)cc23)CC1` [compound 26] was tested, and the Emax (M4 muscarinic receptor; [1]) was under 55%, the “M4 Activity” value (M4 muscarinic receptor; [2]) was “++ (activity was measured to be between 0.1 μM and 4.0 μM)” and the Emax (M1 muscarinic receptor; [1]) was 65 to 85%. The “M1 Activity” value (M1 muscarinic receptor; [3]) was “+++ (activity was measured to be less than or equal to 0.7 μM)”.

For `CC(C)OC(=O)N1C2CCC1CC(N1CCC3(CC1)CN(C(=O)N(C)C)c1ccc(F)cc13)C2` (stereo not shown) [compound 108], the Emax (M4 muscarinic receptor; [1]) was under 55%, the “M4 Activity” value (M4 muscarinic receptor; [2]) was “++ (activity was measured to be between 0.1 μM and 4.0 μM)” and the Emax (M1 muscarinic receptor; [1]) was 65 to 85%. The “M1 Activity” value (M1 muscarinic receptor; [3]) was “+++ (activity was measured to be less than or equal to 0.7 μM)”.

With `CS(=O)(=O)N1CC2(CCN(C3CC4CCC(C3)N4C(=O)OC3CCC3)CC2)c2cc(F)ccc21` (stereo not shown) [compound 122] the Emax (M4 muscarinic receptor; [1]) was under 55%, the “M4 Activity” value (M4 muscarinic receptor; [2]) was “++ (activity was measured to be between 0.1 μM and 4.0 μM)” and the Emax (M1 muscarinic receptor; [1]) was 65 to 85%. The “M1 Activity” value (M1 muscarinic receptor; [3]) was “+++ (activity was measured to be less than or equal to 0.7 μM)”.

With `CCCCC(=O)N1CC2(CCN(C3CCN(C(=O)OCC)CC3)CC2)c2cc(F)ccc21` [compound 270] the Emax (M4 muscarinic receptor; [1]) was over 70%, the “M4 Activity” value (M4 muscarinic receptor; [2]) was “+++ (activity was measured to be less than or equal to 0.1 μM)” and the Emax (M1 muscarinic receptor; [1]) was 65 to 85%. For the same molecule, the “M1 Activity” value (M1 muscarinic receptor; [3]) was “+++ (activity was measured to be less than or equal to 0.7 μM)”.

With `CCOC(=O)N1CCC(N2CCC3(CC2)CN(C(C)=O)c2ccc(-c4ccc(C)cc4)cc23)CC1` [compound 58, ethyl 4-(1-acetyl-5-p-tolylspiro[indoline-3,4′-piperidine]-1′-yl)piperidine-1-carboxylate] the Emax (M4 muscarinic receptor; [1]) was 55 to 70%, the “M4 Activity” value (M4 muscarinic receptor; [2]) was “++ (activity was measured to be between 0.1 μM and 4.0 μM)” and the Emax (M1 muscarinic receptor; [1]) was 65 to 85%. The “M1 Activity” value (M1 muscarinic receptor; [3]) was “+++ (activity was measured to be less than or equal to 0.7 μM)”.
